The values that follow come from patent US20210379046A1, “Methods of Treating Diseases Using Kinase Modulators” (Memorial Sloan Kettering Cancer Center, priority 2018, published 2021).

Several values for one entry are separate records, joined by “and”; a condition that tells them apart may be missing. Equal values may be shown once. Entries after “also recorded” stand apart in the source; their conditions may differ.

One assay has as its system TT cells. The experiment in a line: Flow cytometry of cell surface HLA on TT cells. The format is cell-based, human. The following applies: 72 hrs. As to the method: (§1) If adherent cells, they were seeded one day before treatment.
The subject of a further assay is LC-2/ad cells. The experiment in a line: Flow cytometry of cell surface HLA on LC-2/ad cells. The class given is cell-based, human. The following applies: 72 hrs. As to the method:
as §1
Background: Flow cytometry measures light scatter and fluorescence of single cells or particles in a stream.

Assay [1] has as its system TPC1 cells. Kind of assay: Flow cytometry of cell surface HLA and checkpoint ligands on TPC1 cells. The format is cell-based, human. As to the method:
as §1

Another assay relates to pERK in TPC1 cells. Kind of assay: Western blot of pERK in TPC1 cells. The class given is cell-based, human. The note with it: TPC1, 24 hrs. As to the method:
Cells were seeded in a 60 mm dish or 6 well plates. After the appropriate time point, cells were harvested and lysed and protein was quantified by a Lowry assay (Bio-Rad DC Protein Assay; #5000116). Protein levels were normalized and run on SDS PAGE gels (Bio-Rad). Protein was transferred to a nitrocellulose membrane using semi-dry transfer. Membrane was blocked and incubated with respective antibodies. When needed, secondary antibodies with HRP were incubated for 1 hr. Enhanced chemiluminescent substrate for HRP enzymes was used to image protein levels (Thermo-Fischer; #34095).
Cells were seeded in a 60 mm dish or 6 well plates. After the appropriate time point, cells were harvested, lysed in RIPA buffer (Thermo Instruments) and protein concentration was quantified by a Lowry assay (using the Bio-Rad DC Protein Assay; #5000116 on a Spectramax device from Molecular Devices). Protein loading levels were equalized per lane and separated on SDS gels (Bio-Rad). Protein was transferred to a nitrocellulose membrance using semi-dry transfer (BioRad). Membranes were blocked with Omniblock (American Bio) and incubated with respected antibodies. When needed, secondary antibodies with HRP were incubated for 1 hr. Enhanced chemiluminescent substrate for HRP enzymes was used to image protein levels (Thermo-Fischer; #34095) on a ChemiDoc MP imager with Soft Max Pro software (Biorad).

The next assay deals with TPC1 tumors. The experiment in a line: TPC1 subcutaneous tumors in NRG mice, tumor HLA and PD-L1 by flow cytometry. The class given is in vivo. The following applies: 7 days. As to the method:
Female NSG (NOD.Cg-Prkdc^scidIl2rg^tm1Wj1/SzJ) and NRG (NOD.Cg-Rag1^tm1MomIl2rg^tm1Wj1/SzJ) mice were purchased from the Jackson Laboratory or MSKCC breeding facility at 5-10 weeks old. For RET and ALK experiments, 2.5-6×10^6 tumor cells were subcutaneously injected into the flank of mice and when tumors were palpable, mice were treated daily with drug or vehicles through oral gavage. At day 7, tumors were harvested and flow cytometry was run to determine effect of inhibitors on HLA and PD-L1 on the tumor cells.
To determine if the inhibitors produced similar therapeutic improvements in vivo, mice bearing the TPC1 tumor were treated with RET inhibitors. The highly immunodeficient NRG (NOD-Rag1null IL2rgnull) mice were subcutaneously injected with 2.5×10^6 luciferase tagged TPC1 cells in their right flank. […] Afterwards, cells were immediately harvested and stained with antibodies against HLA-A*02:01 and HLA-ABC.
All animal experiments were conducted in accordance with and the approval of the MSKCC IACUC (Institutional Animal Care and Use Committee) protocols. Female NSG (NOD. Cg-Prkdc^scidIl2rg^tm1Wj1/SzJ) and NRG (NOD.Cg-Rag1^tm1MomIl2rg^tm1Wj1/SzJ) mice were purchased from the Jackson Laboratory at 5-10 weeks old. For experiments in vivo with RET and ALK, 2.5-6×10^6 tumor cells in PBS were subcutaneously injected into the flank of mice. […]

The subject of assay [2] is TPC1 cells. The experiment in a line: ADCC chromium-51 release assay with ESK1 and human PBMCs on inhibitor-pretreated TPC1 cells. The format is cell-based. As to the method:
Peripheral blood mononuclear cells were derived from healthy donors by Ficoll density centrifugation after receiving informed consent on Memorial Sloan Kettering Institutional Review board-approved protocols. TPC1 cells treated with RET inhibitor drugs and DMSO control were labeled with chromium-51 and co-cultured with PBMCs and ESK (or its isotype control, hIgG1). Different E:T ratios were used and after 5 hrs of incubation at 37° C., the supernatant was harvested and chromium levels were measured by Chromium-51 release assay (Perkin Elmer). Higher chromium levels indicated higher levels of cytotoxicity.
After the addition of ESK and peripheral blood mononuclear cells for 5 hrs, chromium release was measured.
For each experiment reported, fresh peripheral blood mononuclear cells were derived from a healthy donor by Ficoll density centrifugation after receiving informed consent on Memorial Sloan Kettering Institutional Review Board-approved protocols. […] Cells were then labeled with 1 uCi/well chromium-51 for 1 hr at 37° C. […] Different effector:target ratios were used and after 5 hrs of incubation at 37° C., the supernatant was harvested and chromium levels were measured through standard chromium-51 release assay on a Top Count machine (Perkin Elmer).

For `CCN1CCN(Cc2ccc(NC(=O)Nc3ccc(Oc4cc(NC)ncn4)cc3)cc2C(F)(F)F)CC1` [AST487], the “surface HLA” value with TT cells is “increased in a AST487 dose-related manner; also recorded: increases in surface HLA”. In the assay with LC-2/ad cells, the “surface HLA” value is “only small increases were seen; also recorded: increases in surface HLA”. Also, in the assay with TPC1 cells [1] (TPC1, 10 nM AST487, 72 hrs), the “HLA levels increase without STAT3 knockdown” value is listed as 3 fold. For the same compound, the “increase in surface HLA-A,B,C levels” value with TPC1 cells [1] (TPC1, 72 hours) was 3- to 4 fold and 3 to 4 fold. For the same compound, in the assay with TPC1 cells [1] (TPC1, 72 hrs), the “surface HLA-A*02:01” value is reported as “dose dependent increase in surface HLA-A*02”, the “surface HLA-A,B,C” value is given as “Surface HLA-A,B,C increase” and the “surface HLA-E levels” value is on record as “did not change”. Also, the “HLA upregulation, AST487 compared with trametinib at the same concentrations” value with TPC1 cells [1] (TPC1, 72 hrs, normalized to DMSO) is “more potent and increased HLA levels at lower doses of drug; also recorded: higher levels of HLA upregulation”. Also, in the assay with TPC1 cells [1] (TPC1, AST 487 10 nM, 72 hours), the “HLA-A02 (BB7-FITC) surface level” value is “led to upregulation of HLA”. Further, in the assay with TPC1 cells [1] (TPC1, siSTAT3 24 hrs before 10 nM AST487, 72 hrs, HLA-A*02), the “HLA levels increase after siSTAT3 pretreatment” value is listed as roughly 6 folds. The “increase in surface HLA, control group (pBabe)” value in the assay with TPC1 cells [1] (TPC1 pBabe, 72 hours) is recorded as roughly 3 fold. The “increase in surface HLA, BRAF V600E cells” value in the assay with TPC1 cells [1] (TPC1 with introduced BRAF V600E mutation) is given as “about 2 fold”. The pERK levels result in the assay with pERK in TPC1 cells was “Inhibition of pERK was seen even at concentrations as low as 10 nM; also recorded: Phospho-ERK levels decreased”. For the same compound, the “tumor cell surface HLA-A*02 and HLA-A,B,C in vivo” value in the assay with TPC1 tumors (10 or 35 mg/kg once daily oral gavage) was “Dose related increase in HLA levels; also recorded: Dose-related increases in all HLA class I levels; also recorded: increased in a dose related manner”. Moreover, the “tumor PD-L1 levels in vivo” value in the assay with TPC1 tumors (oral gavage) is recorded as “no increase in PD-L1 was seen; also recorded: PD-L1 levels did not change in vivo”. Besides, in the assay with TPC1 cells [2] (TPC1 pre-incubated with RET inhibitor), the “ADCC activity of ESK1 against pretreated TPC1 cells” value was “improved antibody-dependent cellular cytotoxicity (ADCC) activity; also recorded: increased in vitro ADCC cytotoxicity”. The specific lysis in the assay with TPC1 cells [2] (TPC1 pretreated 72 hrs with 10 nM AST487, ESK and PBMCs 5 hrs, 50:1 E:T) stood at 20%.
